pIC50: −log10 of the molar value. Counter-ions that a name gives are not always drawn.

For the assay, the target named is notum carboxyesterase enzyme (Homo sapiens (Human), UniProt Q6P988). Kind of assay: Biochemical Notum Enzymatic Activity Assay (OPTS substrate, fluorescence). The settings on record: 2 μM OPTS solution, 2.38 nM notum enzyme solution, 1 hour incubation at room temperature, fluorescence ex 485 nm / em 520 nm; n≥2. The text has this: Plate layout and measured fluorescence values were input into Dotmatics Studies data management tool.
notum carboxyesterase enzyme, sequence (Q6P988 20-496): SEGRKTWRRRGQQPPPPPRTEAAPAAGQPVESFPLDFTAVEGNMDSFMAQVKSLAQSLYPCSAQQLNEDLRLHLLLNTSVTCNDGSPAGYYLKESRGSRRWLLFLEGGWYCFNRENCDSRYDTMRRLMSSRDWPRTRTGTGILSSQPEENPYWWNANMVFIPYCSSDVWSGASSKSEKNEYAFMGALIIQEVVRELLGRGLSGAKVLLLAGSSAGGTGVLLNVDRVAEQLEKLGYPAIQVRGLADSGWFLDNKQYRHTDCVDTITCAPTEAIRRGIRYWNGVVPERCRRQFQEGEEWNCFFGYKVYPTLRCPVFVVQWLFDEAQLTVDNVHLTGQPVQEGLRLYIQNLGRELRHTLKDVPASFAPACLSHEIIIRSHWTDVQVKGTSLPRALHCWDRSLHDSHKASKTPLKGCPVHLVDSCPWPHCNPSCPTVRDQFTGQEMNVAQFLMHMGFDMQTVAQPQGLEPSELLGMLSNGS
Broadly, the pIC50 is −log10 of the IC50, conventionally taken in molar units. As to `OCc1cn(-c2ccc3c(c2)OCCO3)nn1` [Compound 6, (1-(2,3-dihydrobenzo[b][1,4]dioxin-6-yl)-1H-1,2,3-triazol-4-yl)methanol], the negative logarithm of the IC50 (pIC50) was 4.35.

`OCc1cn(-c2ccccc2F)nn1` [Compound 273, (1-(2-Fluorophenyl)-1H-1,2,3-triazol-4-yl)methanol]: the negative logarithm of the IC50 (pIC50) was 4.20.

`COc1ccc(-c2cc[nH]n2)c(O)c1` [Compound 57, 5-methoxy-2-(1H-pyrazol-3-yl)phenol] gave a negative-log IC50 (pIC50) of 4.47.

Molecule `COc1nnc(-c2cccc(Cl)c2)o1` [Compound 176, 2-(3-chlorophenyl)-5-methoxy-1,3,4-oxadiazole] gave a negative-log IC50 (pIC50) of 5.27.

Take `OCc1cn(-c2cc(Cl)ccc2Cl)nn1` [Compound 26, (1-(2,5-dichlorophenyl)-1H-1,2,3-triazol-4-yl)methanol]: the pIC50 was 4.59.

As to `Cn1nc(-c2ccc(Cl)c(C(F)(F)F)c2Cl)oc1=O` [Compound 245, 5-(2,4-dichloro-3-(trifluoromethyl)phenyl)-3-methyl-1,3,4-oxadiazol-2(3H)-one], the pIC50 was 7.17.

In the case of `FC(F)(F)c1cc(-c2nnn[nH]2)ccc1Cl` [Compound 212, 5-[4-chloro-3-(trifluoromethyl)phenyl]-1H-tetrazole], the pIC50 is 4.68.

`COc1nnc(-c2ccc(Cl)c(C(F)(F)F)c2Cl)o1` [Compound 243, 2-(2,4-dichloro-3-(trifluoromethyl)phenyl)-5-methoxy-1,3,4-oxadiazole] showed a pIC50 of 8.24.

In turn, `FC(F)(F)c1c(Cl)ccc(-n2cnnc2)c1Cl` [Compound 300, 4-(2,4-dichloro-3-(trifluoromethyl)phenyl)-4H-1,2,4-triazole] gave a pIC50 of 5.88.

`OCc1ncn(-c2ccc(Cl)c(Cl)c2)n1` [Compound 47, (1-(3,4-dichlorophenyl)-1H-1,2,4-triazol-3-yl)methanol] gave a pIC50 of 4.31.

The molecule `O=C(O)c1cn(-c2ccc(Cl)c(C(F)(F)F)c2Cl)nn1` [Compound 304, 1-[2,4-dichloro-3-(trifluoromethyl)phenyl]triazole-4-carboxylic acid] gave a negative logarithm of the IC50 (pIC50) of 7.52.

Consider `CNc1nnc(-c2ccc(Cl)c(C(F)(F)F)c2Cl)o1` [Compound 249, 5-(2,4-dichloro-3-(trifluoromethyl)phenyl)-N-methyl-1,3,4-oxadiazol-2-amine], for which the pIC50 was 7.50.

Molecule `Cc1nnc(-c2ccc(C3CC3)c(C(F)(F)F)c2)o1` [Compound 190, 2-[4-cyclopropyl-3-(trifluoromethyl)phenyl]-5-methyl-1,3,4-oxadiazole] gave a pIC50 of 7.05.

In the case of `Oc1nnc(-c2cccc(C(F)(F)F)n2)o1` [Compound 206, 5-[6-(trifluoromethyl)-2-pyridyl]-1,3,4-oxadiazol-2-ol], the pIC50 is less than 4.64.

In turn, `Oc1c(F)cc(F)cc1-c1cc[nH]n1` [Compound 52, 2,4-difluoro-6-(1H-pyrazol-3-yl)phenol] gave a negative logarithm of the IC50 (pIC50) of 5.49.

As for `Cn1ncc2ccc(-n3cc(CO)nn3)cc21` [Compound 15, (1-(1-methyl-1H-indazol-6-yl)-1H-1,2,3-triazol-4-yl)methanol], the negative logarithm of the IC50 (pIC50) was 4.06.

As to `c1ccc(-n2cnnn2)cc1` [Compound 134, 1-phenyl-1H-tetrazole], the pIC50 was 4.71.

For the molecule `OCc1cn(-c2ccc(C(F)(F)F)c(Cl)c2)nn1` [Compound 13, (1-(3-chloro-4-(trifluoromethyl)phenyl)-1H-1,2,3-triazol-4-yl)methanol], the pIC50 is 5.76.

Consider `Oc1nnc(-c2ccc(C3CC3)nc2)o1` [Compound 209, 5-(6-cyclopropyl-3-pyridyl)-1,3,4-oxadiazol-2-ol], for which the pIC50 was 4.36.

The molecule `NCc1cn(-c2cc(Cl)cc(Cl)c2)nn1` [Compound 36, (1-(3,5-dichlorophenyl)-1H-1,2,3-triazol-4-yl)methanamine hydrochloride] had a negative-log IC50 (pIC50) of 4.35.

The molecule `OCCc1cn(-c2ccc(Cl)c(C(F)(F)F)c2)nn1` [Compound 303, 2-[1-[4-chloro-3-(trifluoromethyl)phenyl]triazol-4-yl]ethanol] gave a negative logarithm of the IC50 (pIC50) of 6.83.

In turn, `NCc1cn(-c2ccccc2)nn1` [Compound 39, (1-phenyl-1H-1,2,3-triazol-4-yl)methanamine] had a negative logarithm of the IC50 (pIC50) of 5.31.

Molecule `N#Cc1nnc(-c2ccccc2)o1` [Compound 132, 5-phenyl-1,3,4-oxadiazole-2-carbonitrile] had a pIC50 of 4.73.

In turn, `OCc1cn(-c2ccc(Cl)cc2Cl)nn1` [Compound 8, (1-(2,4-dichlorophenyl)-1H-1,2,3-triazol-4-yl)methanol] had a negative-log IC50 (pIC50) of 5.14.

Consider `Nc1nnc(-c2ccc(Cl)cc2)o1` [Compound 156, 2-amino-5-(4-chlorophenyl)-1,3,4-oxadiazole], for which the pIC50 was 4.92.

In turn, `CC(O)c1cn(-c2ccc(Cl)c(C(F)(F)F)c2Cl)nn1` (stereo not shown) [Compound 310, 1-[1-[2,4-dichloro-3-(trifluoromethyl)phenyl]triazol-4-yl]ethanol] gave a negative-log IC50 (pIC50) of 5.74.

As for `Cc1nnnn1-c1ccc(Cl)c(C(F)(F)F)c1` [Compound 182, 1-[4-chloro-3-(trifluoromethyl)phenyl]-5-methyl-tetrazole], the pIC50 was 5.93.

With `OCc1cn(-c2ccc(Cl)c(C(F)(F)F)c2)nn1` [Compound 9, (1-(4-chloro-3-(trifluoromethyl)phenyl)-1H-1,2,3-triazol-4-yl)methanol], the negative logarithm of the IC50 (pIC50) is 7.03.

Molecule `OCc1cn(-c2cc(Cl)cc(Cl)c2)nn1` [Compound 27, (1-(3,5-dichlorophenyl)-1H-1,2,3-triazol-4-yl)methanol] had a negative logarithm of the IC50 (pIC50) of 5.52.

In the case of `FC1CN(c2cc(-n3ccnn3)ccc2C(F)(F)F)C1` [Compound 288, 1-(3-(3-fluoroazetidin-1-yl)-4-(trifluoromethyl)phenyl)-1H-1,2,3-triazole], the pIC50 was 6.61.

`c1nnc(-c2ccc(C3CC3)nc2)o1` [Compound 226, 2-(6-cyclopropyl-3-pyridyl)-1,3,4-oxadiazole]: the pIC50 was 4.37.

In turn, `CC(O)c1cn(-c2ccc(Cl)c(Cl)c2)nn1` (stereo not shown) [Compound 40, 1-(1-(3,4-dichlorophenyl)-1H-1,2,3-triazol-4-yl)ethan-1-ol] had a negative logarithm of the IC50 (pIC50) of less than 5.00.

The molecule `CC(C)(O)c1cn(-c2ccc(Cl)c(Cl)c2)nn1` [Compound 41, 2-(1-(3,4-dichlorophenyl)-1H-1,2,3-triazol-4-yl)propan-2-ol] gave a negative logarithm of the IC50 (pIC50) of less than 5.00.

Molecule `OCc1cn(-c2ccc3nccnc3c2)nn1` [Compound 12, (1-(quinoxalin-6-yl)-1H-1,2,3-triazol-4-yl)methanol] showed a pIC50 of 4.28.

Take `FC(F)(F)c1ccc(-c2c[nH]nn2)cc1C(F)(F)F` [Compound 49, 4-(3,4-bis(trifluoromethyl)phenyl)-1H-1,2,3-triazole]: the pIC50 is 8.10.

Molecule `Clc1ccc(-c2cnco2)cc1` [Compound 151, 5-(4-chlorophenyl)oxazole] gave a pIC50 of 5.24.

`OCc1cn(-c2cccc(Cl)c2)nn1` [Compound 21, (1-(3-chlorophenyl)-1H-1,2,3-triazol-4-yl)methanol] had a pIC50 of 5.02.

With `OCc1cn(-c2cccc3ccccc23)nn1` [Compound 25, (1-(naphthalen-1-yl)-1H-1,2,3-triazol-4-yl)methanol], the pIC50 was 4.43.

As for `CN(C)Cc1cn(-c2ccc(Cl)c(Cl)c2)nn1` [Compound 44, 1-(1-(3,4-dichlorophenyl)-1H-1,2,3-triazol-4-yl)-N,N-dimethylmethanamine hydrochloride], the negative-log IC50 (pIC50) is 4.13.

`NCc1nc(-c2ccc(Cl)cc2)no1` [Compound 152, [3-(4-chlorophenyl)-1,2,4-oxadiazol-5-yl]methanamine] had a negative-log IC50 (pIC50) of 4.37.

In the case of `OCc1cn(-c2ccc(Cl)c(OCC3CC3)c2)nn1` [Compound 18, (1-(4-chloro-3-(cyclopropylmethoxy)phenyl)-1H-1,2,3-triazol-4-yl)methanol], the negative-log IC50 (pIC50) was less than 5.00.

On to `O=C(O)c1cn(-c2ccc(Cl)c(C(F)(F)F)c2)nn1` [Compound 58, 1-(4-chloro-3-(trifluoromethyl)phenyl)-1H-1,2,3-triazole-4-carboxylic acid], for which the negative-log IC50 (pIC50) is 6.01.

`FC(F)(F)c1ccc(-c2nnc(S)o2)cc1C1CC1` [Compound 187, 5-[3-cyclopropyl-4-(trifluoromethyl)phenyl]-1,3,4-oxadiazole-2-thiol]: the negative-log IC50 (pIC50) is 6.37.

Regarding `FC(F)(F)c1cc(-n2ccnn2)ccc1Cl` [Compound 175, 1-[4-chloro-3-(trifluoromethyl)phenyl]triazole], the pIC50 was 7.00.

Regarding `O=C(O)c1cc(-c2ccc(Cl)cc2)c[nH]1` [Compound 160, 4-(4-chlorophenyl)-1H-pyrrole-2-carboxylic acid], the negative logarithm of the IC50 (pIC50) was 4.68.

In turn, `COCc1cn(-c2ccc(Cl)c(Cl)c2)nn1` [Compound 43, 1-(3,4-dichlorophenyl)-4-(methoxymethyl)-1H-1,2,3-triazole] showed a negative logarithm of the IC50 (pIC50) of 5.30.

`Oc1nnc(-c2cc(C3CC3)cc(C(F)(F)F)c2)o1` [Compound 211, 5-[3-cyclopropyl-5-(trifluoromethyl)phenyl]-1,3,4-oxadiazol-2-ol] showed a negative-log IC50 (pIC50) of 6.36.

`FC(F)(F)c1cc(-n2ccnn2)ccc1N1CCCC1` [Compound 286, 1-(4-(pyrrolidin-1-yl)-3-(trifluoromethyl)phenyl)-1H-1,2,3-triazole] showed a pIC50 of 6.06.

Consider `OCc1cn(-c2ccc(C(F)(F)F)cc2)nn1` [Compound 271, (1-(4-(trifluoromethyl)phenyl)-1H-1,2,3-triazol-4-yl)methanol], for which the pIC50 is 5.06.

Regarding `OCc1cc(-c2ccc(Cl)cc2)[nH]n1` [Compound 171, [5-(4-chlorophenyl)-1H-pyrazol-3-yl]methanol], the negative-log IC50 (pIC50) is less than 5.00.

In the case of `FC(F)(F)c1cc(-c2nnco2)ccc1C1COC1` [Compound 284, 2-(4-(oxetan-3-yl)-3-(trifluoromethyl)phenyl)-1,3,4-oxadiazole], the negative logarithm of the IC50 (pIC50) was 5.39.

Molecule `Clc1ccc(-c2cc[nH]n2)cc1Cl` [Compound 55, 3-(3,4-dichlorophenyl)-1H-pyrazole] showed a pIC50 of 5.29.

The values above are taken from patent publication US11634391B2, “Compounds which are inhibitors of Notum” (UCL BUSINESS LTD, priority 2018, dated 2023).
